Source: patent US20210378244A1, “VIRUCIDAL COMPOSITIONS AND METHODS” (InExtreme Enterprises Pty Ltd, priority 2020, published 2021)

System: Gloeocapsa magma
Assay: Biological testing: visual rating of Gloeocapsa magma growth on inoculated plywood panels dipped in test solutions
Assay type: cell-based
Details: for effect on biocidal activity when combined with DDAC and/or BAC (QAC): QAC or QAC mixture and additive at concentrations as in the tables, data not shown for urea and urea dihydrochloride
Method: Test Solutions and Tests: To prepare the various QAC solutions, the following materials where used: Stepan BTC 1010 (50% aqueous solution of didecyl dimethyl ammonium chloride) and Stepan BTC 12 Special (50% aqueous solution of alkyl dimethyl benzyl ammonium chloride). Urea Monohydrochloride was prepared by reacting solid urea with hydrochloric acid 20BE (32% aqueous solution) at a ratio of one Mol active HCl to one Mol urea. Both Urea and HCl 20 BE are readily commercially available.
Biological testing: Gloeocapsa magma was chosen as a bacterial species that served as a model system for corona virus in terms of surface adhesion and membrane characteristics. The bacteria were cultured in a petri dish and inoculated on plywood panels (10×10 cm). […] The panels were dipped in the testing solutions for 10 seconds and left to dry. 24 hours post immersion each panel was examined for presence of green (living bacteria). This was done visually and rated from 0 (no growth)) to 5 (full growth coverage).

CCCCCCCCCC[N+](C)(C)CCCCCCCCCC.[Cl-] [DDAC, didecyl dimethyl ammonium chloride]
biocidal effect (0.9% of DDAC in combination with the urea or other nitrogenous base-hydrochloride in water): same biocidal effect as 3% DDAC alone in water

Cl.NC(N)=O [UMC, Urea Monohydrochloride]
effect on biocidal activity when combined with DDAC and/or BAC (QAC): synergistic effect

Cl.Cl.NC(N)=O [urea dihydrochloride]
effect on biocidal activity when combined with DDAC and/or BAC (QAC): no impact in biocidal activity

NC(N)=O [urea]
effect on biocidal activity when combined with DDAC and/or BAC (QAC): no impact in biocidal activity
